Legend:
B16 melanoma = assay: Anti-tumor efficacy with intratumoral transduced DCs in B16 melanoma mouse model; assay type: in vivo, C57/BL6 mice
Experimental: A comparative analysis of various administration routes and doses of (R)-2-ethyl-3-methoxy-benzoic acid N′-(1-tert-butyl-butyl)-N′-(3,5-dimethylbenzoyl)-hydrazide on the anti-tumor efficacy of intra-tumorally delivered DCs transduced with an adenoviral vector encoding murine interleukin-12p70 (DC-SP1(IL-12p70)) were carried out in a B16 melanoma mouse model. […] Optimal anti-tumor effects occurred at ≥30 mg/kg (R)-2-ethyl-3-methoxy-benzoic acid N′-(1-tert-butyl-butyl)-N′-(3,5-dimethyl-benzoyl)-hydrazide dose administered with (DC-SP1(IL-12p70)) therapy.
This drug dependent effect was associated with: transgene expression in the tumor and DLN; prolonged Ad-DCs survival in the tumor microenvironment; migration and persistence of AdDCs in the DLN; and induction of anti B16 CD8+ T cells.
When tumor-free animals were re-challenged, on day 50 (post-initial tumor inoculation), these animals were refractory to B16 melanoma, but not MC38 colon carcinoma, progression.

Microsomal metabolism = assay type: in vitro ADME, human; conditions: 5 μM, 1.0 mg/mL microsomal protein, 1 mM NADPH, 60 minutes
Experimental: The test compounds were prepared as 5 μM solutions in DMSO (concentration less than 0.25%), methanol, or acctonitrile. Mixed gender human liver microsomes were pooled from a ≥10 donors, and incubated with 1 mM NADPH. The test compound was incubated at 37° C. in buffer containing 1.0 mg/mL of microsomal protein with 1 mM NADPH. At 0 and 60 minutes, the mixture was sampled and monitored by LC/MS/MS for the peak area corresponding to the test compound, with the range of 10-100%. The assay was run in duplicate (N=2 separate incubations). The data reported in FIG. 15 is percent remaining of testosterone standard and percent remaining of the test compound.

[1] = Solubility in aqueous polysorbate 80, Assay 4; assay type: physicochemical
From the text: Equilibrium solubility in formulation excipients and biological fluids influences drug bioavailability, although kinetics of dissolution may also be a limiting factor in determining bioavailability. The solubilities of R enantiomer and racemate of 2-ethyl-3-methoxy-benzoic acid N′-(1-tert-butyl-butyl)-N′-(3,5-dimethyl-benzoyl)-hydrazide were established quantitatively in aqueous preparations of the pharmaceutical surfactant polysorbate 80 and then the intrinsic dissolution rate of compacted test substance was observed. Mixtures of racemate and R enantiomer in 0.5%, 1%, and 1.5% polysorbate 80 solutions were prepared by addition of 20+/−1 mg test substance in a 2 mL Eppendorf vial, followed by 500 mg polysorbate solution. The mixture was bead-beaten for 120 second, shaken at 25° C. for 16 to 24 hours, and filtered using a Spin-X (0.2 μM). The pH of the filtrate was recorded. The concentration of test substance in the filtrate was measured by quantitative HPLC analysis (FIG. 12). The R enantiomer is 2-3× more soluble in 1.0 and 1.5% polysorbate 80 solutions.

[2] = Solubility in pharmaceutical excipients, Assay 1 (qualitative); assay type: physicochemical
Experimental: The solubility of micronized R enantiomer and racemate of 2-Ethyl-3-methoxy-benzoic acid N′-(1-tert-butyl-butyl)-N′-(3,5-dimethyl-benzoyl)-hydrazide was assessed qualitatively in commercially-available excipients (FIG. 9). Initial solutions/suspensions of 10 mg/g (test article/excipient) in glass vials were prepared by sonication at room temperature for 15 minutes with swirling for 30 seconds at 5 minute intervals, followed by heating in an aluminum block at 50° C. for 12 minutes with swirling for 30 seconds at 3 minute intervals. Based on the appearance of this initial 10 mg/g excipient sample, a 2-4 point concentration continuum was scanned by up or down sampling at several of the following points: 5, 10, 15, 20, 30, 50 mg/g (test article/excipient). […] Photos of several of the preparations in clear glass vials were taken (not shown).

Structure (SMILES): CCC[C@@H](N(NC(=O)c1cccc(OC)c1CC)C(=O)c1cc(C)cc(C)c1)C(C)(C)C [Example 1, (R)-3,5-Dimethyl-benzoic Acid N-(1-tert-butyl-butyl)-N′-(2-ethyl-3-methoxy-benzoyl)-hydrazide]
- protective immunity on tumor re-challenge (B16 melanoma; 10^7 AdDCs plus 13 day ligand treatment, re-challenge day 50): protective immunity that was tumor-specific
- tumor regression and animal survival (B16 melanoma; intratumoral AdDCs carrying murine IL-12, systemic ligand within 48 hours following AdDCs injection): complete regression of tumor and prolonged animal survival
- dose for optimal anti-tumor effects (B16 melanoma; with DC-SP1(IL-12p70) therapy): ≥ 30 mg/kg
- anti-tumor efficacy (B16 melanoma; with DC-SP1(IL-12p70) therapy, i.p. injection, oral gavage or diet admix): anti-tumor efficacy was demonstrated
- stability to metabolism in human liver microsomes, compared (Microsomal metabolism): slightly more stable
- solubility relative to racemate ([1]; 1.0 and 1.5% polysorbate 80 solutions, 25° C.): 2-3 ×
- solubility of racemate and R enantiomer compared ([1]; deionized water and 0.5% polysorbate 80): comparable
- solubility in pharmaceutical excipients (qualitative) ([2]; all tested excipients except neat polysorbate 80, 5-50 mg/g): more soluble than racemate
- solubility in neat polysorbate 80 (qualitative) ([2]; neat polysorbate 80): comparably soluble

Source: patent US20200270225A1, “Chiral Diacylhydrazine Ligands for Modulating the Expression of Exogenous Genes via an Ecdysone Receptor Complex” (Intrexon Corporation, priority 2007, published 2020)
